Consider 1 molecule from US10330673B2, “Fluorescent chemical sensor for biological amines” (The Curators of the University of Missouri, priority 2013, dated 2019).

Test [1] concerns EP-enriched chromaffin cells. Briefly: Fixed-cell staining with I-2 and anti-PNMT antibody, EP-enriched cells. Format: cell-based, bovine. The conditions noted are these: 585 nm = anti-PNMT/Cy3, 525 nm = I-2 (1 μM), ImageJ. From the text: To further validate the selectivity of the inventive sensor, the inventive detection method is validated with an established procedure in which phenylethanolamine N-methyltransferase (PNMT) is stained with an antibody and visualized with a Cy3-conjugated secondary antibody. It has been shown that epinephrine-enriched cell populations gave the highest level of PNMT staining, while norepinephrine-enriched populations gave lower staining (ca. 20% of that with epinephrine-enriched cells). For this experiment, three populations of chromaffin cells (norepinephrine-enriched, epin ephrine-enriched, and mixed) were stained with Compound I-2 and fixed in 4% paraformaldehyde. The fixed cells were stained with the anti-PNMT and secondary antibodies.
Chromaffin cells were isolated from bovine adrenal glands as previously described. […]
NE-enriched cells, EP-enriched cells and mixed cells stained with I-2 (1 μM) and plated on 0.0025% Poly (1-lysine) coated cover slips, after three washed with pre-warmed phosphate-buffered saline (pH=7.4, PBS), were fixed in 4% paraformaldehyde (Sigma, St. Louis, Mo., USA) in PBS for 60 min at room temperature (RT), followed by 6 min in methanol chilled to −20° C. […] After three washed in PBS, bound antibody was detected using Cy™3-conjugated AffiniPure Donkey Anti-Rabbit (1:150 dilution, Jackson ImmunoResearch Laboratories, Inc, Nest Grove, Pa., 19390). […]

Test [2] is described as follows: Fluorescence titration of sensor with glutamate. Format: binding. The conditions noted are these: for Ka: pH 5.0, 37° C. The procedure:
(§1) Fluorescence spectra were recorded on a Shimadzu RF-5301 PC spectrofluorometer at 37° C. A 1 mg/mL stock solution of I-2 in DMSO was prepared. A stock solution of I-2 in buffer (1×10^−5 M, 25 mM HEPES, 50 mM Na2S2O3, pH=5.0) was prepared. Norepinephrine, dopamine, epinephrine, and glutamate stock solutions were prepared by separately dissolving the analytes at the concentration to be used in the titration with the buffered stock solution of I-2 (thus avoiding dilution of I-2 during the experiment). I-2 was titrated with aliquots of analyte solution. The sensor was excited at 488 nm with slit widths of 5 nm.
(§2) Fluorescence spectra were recorded on a Shimadzu RF-5301 PC spectrofluorometer at 37° C. A separate 1 mg/mL stock solution of each coumarin-3-aldehyde derivative in DMSO was prepared. An aqueous stock solution of each derivative (10 μM) in buffer (25 mM HEPES, 50 mM Na2S2O3, pH=5.0) was prepared. Norepinephrine, dopamine, glutamate, and epinephrine stock solutions were prepared by separately dissolving the solid analytes at the concentration to be used in the titration with the buffered stock solutions described above and thus, avoiding dilution of the sensor during the experiment. The benzene-based NS521 derivatives were excited at 488 nm. The thiophene-based derivatives were excited at 515 nm.

Test [3] is described as follows: Fluorescence titration of sensor with glycine. Format: binding. The conditions noted are these: amine guest glycine.
A short description of test [4]: Fluorescence titration of sensor with norepinephrine. In kind it is binding. The note with it: for Ka: pH 5.0, 37° C. As to the method:
as §1, §2

Setting [5] is: Table 2, analyte glutamate, benzene-based compounds I, excited at 488 nm.
Setting [6] is: Table 2, analyte norepinephrine, benzene-based compounds I, excited at 488 nm.

As to `CCN(CC)c1ccc2c(-c3ccc(OC)cc3)c(C=O)c(=O)oc2c1` [Compound I-2, 7-diethylamino-3-formyl-4-(4′-methoxyphenyl)coumarin], the “average fluorescence intensity at 585 nm vs. 525, epinephrine-enriched relative to norepinephrine-enriched cells” value in test [1] worked out at 6 times. Moreover, the F.E. is listed as 7.82 in test [2] (setting [5]) and 5.40 in test [4] (setting [6]). For the same molecule, the Ka in test [2] (setting [5]) came out at 9.63 M⁻¹; in test [2] (amine guest glutamate, fluorescence spectroscopy, λex = 488 nm, λem = 521 nm), 10 M⁻¹; in test [3] (fluorescence spectroscopy, λex = 488 nm, λem = 521 nm) it was 8 M⁻¹; in test [4] (setting [6]), 77.76 M⁻¹; in test [4] (amine guest norepinephrine, fluorescence spectroscopy, λex = 488 nm, λem = 521 nm) it was 75 M⁻¹. Further, the “Isat/Io (λex = 488 nm)” value in test [2] (amine guest glutamate, intensity at saturation from fit to binding isotherm) stood at 7.8; in test [3] (intensity at saturation from fit to binding isotherm), 11.1; in test [4] (amine guest norepinephrine, intensity at saturation from fit to binding isotherm), 5.3. In addition, the “binding constants of catecholamines (norepinephrine, dopamine) relative to other alkyl amines such as glycine” value in test [4] (higher binding constants) was determined as 10 fold.
